Experimental data taken from PubChem BioAssay AID1919016 (Molecular Pharmacology Branch, DTP, NCI, 2023).
Values joined by “and” are separate entries in the source; they are usually repeats but may differ in a detail not shown here. Equal values may be shown once.

Tested on: NCI-H196 complex spheroid growth, percent test/control
Test: Anticancer human tumor NCI-H196 cell line growth inhibition [AhR];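 also: seven days of drug exposure starting three days after plating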;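 as to viability, T/C: 100% = DMSO vehicle control wells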
Details: for viability, T/C: stronger effect = lower value
Outline: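 Complex tumor spheroids co-cultured with HUVEC and human MSC stroma; AhR antagonists tested in combination with standard-of-care and investigational agents. Top concentration at or near clinical Cmax (else 10 microM), half-log dilutions; growth expressed as percent test/control.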

[1] = curve of first compound, second compound 0.1 µM
[2] = curve of first compound, second compound 0.316 µM
[3] = curve of first compound, second compound 1 µM
[4] = curve of first compound, second compound 3.16 µM
[5] = curve of first compound, second compound 10 µM
[6] = second compound 0.1 µM, first compound 0.0316 µM
[7] = second compound 0.1 µM, first compound 0.1 µM
[8] = second compound 0.1 µM, first compound 0.316 µM
[9] = second compound 0.1 µM, first compound 1 µM
[10] = second compound 0.316 µM, first compound 0.0316 µM
[11] = second compound 0.316 µM, first compound 0.1 µM
[12] = second compound 0.316 µM, first compound 0.316 µM
[13] = second compound 0.316 µM, first compound 1 µM
[14] = second compound 1 µM, first compound 0.0316 µM
[15] = second compound 1 µM, first compound 0.1 µM
[16] = second compound 1 µM, first compound 0.316 µM
[17] = second compound 1 µM, first compound 1 µM
[18] = second compound 3.16 µM, first compound 0.0316 µM
[19] = second compound 3.16 µM, first compound 0.1 µM
[20] = second compound 3.16 µM, first compound 0.316 µM
[21] = second compound 3.16 µM, first compound 1 µM
[22] = second compound 10 µM, first compound 0.0316 µM
[23] = second compound 10 µM, first compound 0.1 µM
[24] = second compound 10 µM, first compound 0.316 µM
[25] = second compound 10 µM, first compound 1 µM

O=C(C=Cc1cccc(S(=O)(=O)Nc2ccccc2)c1)NO
viability, T/C (compound 0.0316 µM): 93.5% and 93.7% and 104% | viability, T/C (compound 0.1 µM): 107% and 95.2% and 101% | viability, T/C (compound 0.316 µM): 78.8% and 87.2% and 93.9% | viability, T/C (compound 1 µM): 61.2% and 73.3% and 75.5% | viability, T/C (compound 3.16 µM): 21.6% and 27.8% and 22.7% | viability, T/C (compound 10 µM): 0.64% and 0.72% and 0.55% | IC50 (curve of compound): 1.32 µM and 1.79 µM and 1.73 µM

COc1cc(C2c3cc4c(cc3C(OC3OC5COC(C)OC5C(O)C3O)C3COC(=O)C23)OCO4)cc(OC)c1O (centres undefined)
viability, T/C (compound 0.0316 µM): 114% and 96.5% and 94.6% | viability, T/C (compound 0.1 µM): 103% and 110% and 111% | viability, T/C (compound 0.316 µM): 122% and 107% and 91.5% | viability, T/C (compound 1 µM): 94.3% and 121% and 94.5% | viability, T/C (compound 3.16 µM): 93.5% and 114% and 91.3% | viability, T/C (compound 10 µM): 90.1% and 89.2% and 76.2% | IC50 (curve of compound): > 10 µM

CC1COCCN1c1cc(C2(S(C)(=N)=O)CC2)nc(-c2ccnc3[nH]ccc23)n1 (centres undefined) + CC(CO)NC(=O)c1cc(-c2ccc(Cl)cc2)nn(-c2cnn(C)c2)c1=O
IC50 [1]: > 10 µM | IC50 [2]: > 10 µM | IC50 [3]: > 10 µM | IC50 [4]: > 10 µM | IC50 [5]: > 10 µM | viability, T/C [6]: 106% | viability, T/C [7]: 115% | viability, T/C [8]: 98.6% | viability, T/C [9]: 117% | viability, T/C (second compound 0.1 µM, first compound 3.16 µM): 101% | viability, T/C (second compound 0.1 µM, first compound 10 µM): 87% | viability, T/C [10]: 103% | viability, T/C [11]: 110% | viability, T/C [12]: 114% | viability, T/C [13]: 104% | viability, T/C (second compound 0.316 µM, first compound 3.16 µM): 89.8% | viability, T/C (second compound 0.316 µM, first compound 10 µM): 91.1% | viability, T/C [14]: 113% | viability, T/C [15]: 114% | viability, T/C [16]: 114% | viability, T/C [17]: 109% | viability, T/C (second compound 1 µM, first compound 3.16 µM): 100% | viability, T/C (second compound 1 µM, first compound 10 µM): 85.8% | viability, T/C [18]: 119% | viability, T/C [19]: 126% | viability, T/C [20]: 106% | viability, T/C [21]: 111% | viability, T/C (second compound 3.16 µM, first compound 3.16 µM): 99.3% | viability, T/C (second compound 3.16 µM, first compound 10 µM): 83.8% | viability, T/C [22]: 113% | viability, T/C [23]: 115% | viability, T/C [24]: 109% | viability, T/C [25]: 120% | viability, T/C (second compound 10 µM, first compound 3.16 µM): 103% | viability, T/C (second compound 10 µM, first compound 10 µM): 81.8%

CC1COCCN1c1cc(-c2ccnn2C)c2ccnc(-c3ccn[nH]3)c2n1 (centres undefined) + Cc1ccccc1N=Nc1ccc(NC(=O)c2ccnn2C)c(C)c1
IC50 [1]: > 1 µM | IC50 [2]: > 1 µM | IC50 [3]: > 1 µM | IC50 [4]: > 1 µM | IC50 [5]: > 1 µM | viability, T/C (second compound 0.1 µM, first compound 0.00316 µM): 96.4% | viability, T/C (second compound 0.1 µM, first compound 0.01 µM): 90.9% | viability, T/C [6]: 86% | viability, T/C [7]: 66% | viability, T/C [8]: 58.3% | viability, T/C [9]: 53% | viability, T/C (second compound 0.316 µM, first compound 0.00316 µM): 98.9% | viability, T/C (second compound 0.316 µM, first compound 0.01 µM): 96.1% | viability, T/C [10]: 87.5% | viability, T/C [11]: 71.3% | viability, T/C [12]: 52.2% | viability, T/C [13]: 52.7% | viability, T/C (second compound 1 µM, first compound 0.00316 µM): 85.2% | viability, T/C (second compound 1 µM, first compound 0.01 µM): 94.5% | viability, T/C [14]: 85.5% | viability, T/C [15]: 71.1% | viability, T/C [16]: 56% | viability, T/C [17]: 52.1% | viability, T/C (second compound 3.16 µM, first compound 0.00316 µM): 89.2% | viability, T/C (second compound 3.16 µM, first compound 0.01 µM): 94.2% | viability, T/C [18]: 91.5% | viability, T/C [19]: 70.5% | viability, T/C [20]: 56.6% | viability, T/C [21]: 49.9% | viability, T/C (second compound 10 µM, first compound 0.00316 µM): 96.8% | viability, T/C (second compound 10 µM, first compound 0.01 µM): 88.9% | viability, T/C [22]: 77.9% | viability, T/C [23]: 74.6% | viability, T/C [24]: 63.4% | viability, T/C [25]: 52.8%
